US20130079353A1, “FLUOROQUINOLONES FOR THE TREATMENT AND/OR PROPHYLAXIS OF INFLAMMATORY DISEASES” (priority 2009, published 2013)

Experiments:
IL-4 [1] = experiment: Activation-induced IL-4 secretion, ELISA; type: cell-based, human; conditions: 50 μg/ml for 7 days, anti-CD3 (30 μg/ml) and anti-CD28 (1 μg/ml) for 16 h
Description: IL-2 and IL-4 concentrations were measured by enzyme-linked immunosorbent (ELISA) assay (BD OptEIA Set Human IL-2/IL-4, Becton Dickinson). Resting peripheral human T-cells (“day 0” T-cells)+/−rotenone (10 μg/ml, 15 min pre-treatment) were stimulated with plate-bound anti-CD3 monoclonal antibody (30 μg/ml) and soluble anti-CD28 monoclonal antibody (1 μg/ml) for 4 h. Next, the supernatants were cleared by centrifugation and the measurements were performed according to the manufacturer's instructions.
Human peripheral blood T-cells from healthy donors or patients with atopic dermatitis were pre-activated by PHA treatment and subsequently cultured for 7 days in presence or absence of 50 μg/ml cipro. Next, T-cells were activated via plate-bound anti-CD3 antibody (30 μg/ml) and soluble anti-CD28 antibody (1 μg/ml) for 16 h. Supernatants were harvested and secreted amounts of IL-4 were measured by ELISA. […] Therefore, inhibition of IL-4 transcription is not compensated by translational or post translational mechanisms.

[2] = system: PHA-activated human T-cells; conditions: short-term (up to 96 hours) or simultaneous treatment; cited from earlier work
citrate synthase = experiment: Activity of citrate synthase in treated T-cells; type: cell-based; conditions: prolonged, long-term treatment of pre-activated human T-cells
Description: (§1) Activities of the respiratory chain single enzyme complexes I and II, as well as of citrate synthase, were measured as described previously with minor modifications. Ciprofloxacin-treated cells were depleted of dead cells via Biocoll (Biochrom) gradient centrifugation. The cell number in different batches of ciprofloxacin-treated cells was equalized. For measurement of the enzymatic activities, samples were prepared as described previously with minor modifications. 4×10^7 cells were washed with PBS, shock-frozen in liquid nitrogen and thawed on ice. Next, cells were permeabilized by 15 min incubation with 1 ml of 0.015% digitonin (w/v) in respiratory chain (RC) buffer (250 mM sucrose, 50 mM KCl, 5 mM MgCl2, 20 mM Tris-HCl, pH 7.4), washed with RC buffer and centrifuged at 8 000 rpm for 5 min at 4° C. For a single data point the activity measurement was performed three times in triplicates and the average value was calculated. Steady state activity was recorded in a 96-well plate spectrophotometer using a thermostated chamber and a final volume of 300 μl. Enzymatic activities of complex I and complex II were recorded as NADH oxidation at 340-400 nm and as succinate oxidation at 610-750 nm, respectively. Citrate synthase activity was detected after two additional freeze/thaw cycles as 5,5′-dithiobis-(2-nitrobenzoic acid) (DTNB) reduction at 412 nm.

[3] = system: complex II (succinate dehydrogenase); experiment: Activity of complex II in treated T-cells; type: cell-based; conditions: prolonged, long-term treatment of pre-activated human T-cells
Description: as §1

IL-4 [4] = experiment: IL-4 gene expression, quantitative real-time SYBRGreen PCR (vs GAPDH); type: cell-based, human
Description: (§2) Quantitative real-time-PCR was performed using the Power SYBR Green PCR Master Mix (Applied Biosystems). Gene expression was analyzed using the 7500 Real-Time PCR Systems and Sequence Detection Software version 1.2.2 (Applied Biosystems). IL-2 and IL-4 gene expression levels were normalized using glyceraldehyde-3-phosphat dehydrogenase (GAPDH) expression levels as an endogenous reference.
(§3) The mean induction ratios were calculated.
(§4) Total cellular RNA was isolated and reverse-transcribed. Expression of IL-2 (see FIG. 4A) and IL-4 (see FIG. 4B) was analyzed using quantitative real-time SYBRGreen PCR. IL-2 and IL-4 expression levels were estimated by gene expression ratio between IL-2 or IL-4 gene and GAPDH genes.
as §4, with “5A)” for “4A)”, “5B)” for “4B)”, “genes. Data are shown as fold increase of induction of gene expression, where anti-CD3 activated cells are compared with respective unstimulated controls.” for “genes.”
(§5) Next, the cells were activated via plate-bound anti-CD3 antibody for 1 h and the gene expression levels for IL-4 (sec FIGS. 6A and 13), IL-2 (see FIGS. 6C and D) and CD95L (see FIGS. 6E and F) were assayed. […] A clear inhibition of TCR induced up-regulation of IL-4, IL-2 and CD95L was detected.

[5] = system: mitochondrial respiratory complex I (NADH-quinone oxidoreductase); experiment: Activity of mitochondrial respiratory complex I in treated T-cells, real-time spectrophotometry; type: cell-based, human; conditions: PHA-pre-activated T-cells treated 7 days; 15 min, 20° C.; normalized to total protein content; three donors
Description: as §1, with “Next, cells were permeabilized by 15 min incubation with 1 ml of 0.015% digitonin (w/v) in respiratory chain (RC) buffer (250 mM sucrose, 50 mM KCl, 5 mM MgCl2, 20 mM Tris-HCl, pH 7.4), washed with RC buffer and centrifuged at 8 000 rpm for 5 min at 4° C.” left out
PHA-pre-activated and treated T-cells (see Example 2.1) were shock-frozen in liquid nitrogen. Next, activity of mitochondrial respiratory complex I (NADH-quinone oxidoreductase) was measured by real-time spectrophotometry. […]

CD95L = CD95L gene expression, quantitative real-time SYBRGreen PCR (vs GAPDH); type: cell-based, human; conditions: T-cells from patients with atopic dermatitis, 50 μg/ml for 7 days, anti-CD3 for 1 h
Description: as §2, §5

[6] = system: activation-induced ROS generation in pre-activated primary human T-cells; experiment: Activation-induced ROS generation, H2DCF-DA staining and FACS; type: cell-based; conditions: PHA-pre-activated T-cells, 7 days of Cipro treatment, plate-bound anti-CD3 (30 μg/ml), 1 h after activation
Description: Cells were stained with H2DCF-DA (5 μM) for 30 min. Next, cells were then divided and stimulated with either plate-bound anti-CD3 antibody (30 μg/ml) or PMA (10 ng/ml). Treatment was terminated by ice-cold PBS and ROS generation was determined by FACS analysis. If not stated otherwise, ROS generation was quantified as the increase in mean fluorescence intensity (MFI), calculated according to the following formula: increase in
MFI(%)=[(MFIstimulated−MFIunstimulated)/MFIunstimulated]×100 9.
After PHA-pre-activated and 7 days of Cipro treatment, T-cells were stained with redox sensitive fluorescent probe H2DCF-DA (20 min, 37° C.) and subsequently activated via plate-bound agonistic anti-CD3 antibody (30 μg/ml). The level of activation-induced ROS was assessed by FACS measurement 1 h after activation and calculated as percentage increase in MFI (untreated control set to 100%).

IL-2 [7] = conditions: short-term (up to 96 hours) or simultaneous treatment, PHA-activated human T-cells; cited from earlier work
IL-2 [8] = experiment: IL-2 gene expression, quantitative real-time SYBRGreen PCR (vs GAPDH); type: cell-based, human
Description: as §2, §3, §4
Total cellular RNA was isolated and reverse-transcribed. Expression of IL-2 (see FIG. 5A) and IL-4 (see FIG. 5B) was analyzed using quantitative real-time SYBRGreen PCR. IL-2 and IL-4 expression levels were estimated by gene expression ratio between IL-2 or IL-4 gene and GAPDH genes. […]
as §5

[9] = PHA-pre-activated primary human T-cells, different amounts of ciprofloxacin for 7 days, not restimulated
[10] = T-cells from patients with atopic dermatitis, 50 μg/ml for 7 days, anti-CD3 for 1 h

## O=C(O)c1cn(C2CC2)c2cc(N3CCNCC3)c(F)cc2c1=O [ciprofloxacin, 1-cyclopropyl-6-fluoro-1,4-dihydro-4-oxo-7-(1-piperazinyl)-3-quinoline-carboxylic acid]
IL-4 [1]; T-cells from healthy donors
  CD3/CD28 triggering-induced IL-4 secretion: blocked
IL-4 [1]; T-cells from patients with atopic dermatitis
  CD3/CD28 triggering-induced IL-4 secretion: blocked
[2]
  proliferation of PHA-activated human T-cells: enhanced
Citrate synthase
  activity of citrate synthase: unaffected
[3]
  activity of complex II (succinate dehydrogenase): unaffected
IL-4 [4]; 5 healthy donors, 50 μg/ml for 7 days, P<0.05 (0.03125)
  basal IL-4 levels, treated PHA-pre-activated T cells vs "day 0" T cells: significant down-regulation
IL-4 [4]; 7 patients with atopic dermatitis, 50 μg/ml for 7 days, P<0.01 (0.00781)
  basal IL-4 levels, treated PHA-pre-activated T cells vs "day 0" T cells: significant down-regulation
IL-4 [4]; [9]
  basal IL-4 expression: increases basal IL-2 and IL-4 expression slightly
IL-4 [4]; [10]
  anti-CD3-induced increase in IL-4 transcripts levels: clearly blocked
[5]
  activity of mitochondrial respiratory complex I: impaired activity
CD95L
  anti-CD3-induced increase in CD95L transcripts levels: clearly blocked
[6]
  activation-induced ROS generation: blocks
IL-2 [7]
  IL-2 secretion: enhanced
IL-2 [8]; [9]
  basal IL-2 expression: increases basal IL-2 and IL-4 expression slightly
IL-2 [8]; [10]
  anti-CD3-induced increase in IL-2 transcripts levels: clearly blocked
